Test results as given in publication PMC10504544, “1-deoxy-D-xylulose-5-phosphate synthase from Pseudomonas aeruginosa and Klebsiella pneumoniae reveals conformational changes upon cofactor binding” (The Journal of Biological Chemistry, 2023).

What was measured:
Format in all cases: biochemical
[1] = target: T1, 1-deoxy-D-xylulose-5-phosphate synthase (kpDXPS) (Klebsiella pneumoniae, UniProt A6T5F3, DEL197-240/INS196GGGGGG); test: IspC-coupled spectrophotometric assay
T1 construct: gene dxs; truncated kpDXPS; residues 197 to 240 replaced with a six glycine unit

[2] = target: T2, 1-deoxy-D-xylulose-5-phosphate synthase (paDXPS) (Pseudomonas aeruginosa, UniProt B7V7R4, DEL206-245/INS205GGGGGG); test: co-crystal structure ([…] Å); coupled spectrophotometric inhibition assay
T2 construct: gene dxs; truncated paDXPS; residues 206 to 245 replaced with a six glycine unit

[3] = target: T3, 1-deoxy-D-xylulose-5-phosphate synthase (paDXPS) (Pseudomonas aeruginosa, UniProt B7V7R4, DEL206-245/INS205GGGGGG); test: IspC-coupled spectrophotometric assay; mode-of-inhibition study
T3 construct: gene dxs
T3 sequence (B7V7R4 1-627 INS205GGGGGG/DEL206-245): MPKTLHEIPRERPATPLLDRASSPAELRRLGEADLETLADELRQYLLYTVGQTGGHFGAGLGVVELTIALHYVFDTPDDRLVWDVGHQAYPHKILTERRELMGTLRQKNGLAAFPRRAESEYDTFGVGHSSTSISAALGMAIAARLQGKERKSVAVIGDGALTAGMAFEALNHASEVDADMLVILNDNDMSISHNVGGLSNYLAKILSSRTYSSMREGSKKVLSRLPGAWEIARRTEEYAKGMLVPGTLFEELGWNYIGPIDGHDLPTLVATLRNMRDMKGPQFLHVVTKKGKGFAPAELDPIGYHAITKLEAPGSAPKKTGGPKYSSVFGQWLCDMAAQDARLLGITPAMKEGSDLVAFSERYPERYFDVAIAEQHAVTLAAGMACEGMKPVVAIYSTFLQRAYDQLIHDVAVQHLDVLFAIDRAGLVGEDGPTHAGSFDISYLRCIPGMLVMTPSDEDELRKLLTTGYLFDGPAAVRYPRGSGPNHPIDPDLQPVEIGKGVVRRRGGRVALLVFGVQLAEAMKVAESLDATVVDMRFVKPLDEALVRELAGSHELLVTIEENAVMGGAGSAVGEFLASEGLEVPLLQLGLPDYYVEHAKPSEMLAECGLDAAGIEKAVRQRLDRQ

T1 sequence (A6T5F3 whole entry, stated change not applied, the tested form may be a part): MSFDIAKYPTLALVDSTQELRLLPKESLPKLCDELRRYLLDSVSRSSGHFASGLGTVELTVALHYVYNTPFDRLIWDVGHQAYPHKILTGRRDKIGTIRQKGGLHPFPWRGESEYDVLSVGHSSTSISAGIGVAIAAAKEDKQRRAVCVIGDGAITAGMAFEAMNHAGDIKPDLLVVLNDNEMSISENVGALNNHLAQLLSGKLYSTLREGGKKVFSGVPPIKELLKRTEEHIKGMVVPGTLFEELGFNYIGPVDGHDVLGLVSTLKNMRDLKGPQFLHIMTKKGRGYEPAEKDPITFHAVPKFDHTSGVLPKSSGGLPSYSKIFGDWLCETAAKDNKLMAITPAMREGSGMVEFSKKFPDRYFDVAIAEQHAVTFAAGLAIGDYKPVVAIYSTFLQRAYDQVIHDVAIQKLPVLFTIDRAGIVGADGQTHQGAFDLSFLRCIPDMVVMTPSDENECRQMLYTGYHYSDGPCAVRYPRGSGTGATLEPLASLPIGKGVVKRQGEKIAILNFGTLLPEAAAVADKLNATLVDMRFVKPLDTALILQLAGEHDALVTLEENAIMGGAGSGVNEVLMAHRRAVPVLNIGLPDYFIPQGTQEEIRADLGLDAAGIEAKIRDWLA

SMILES	IC50 [1]	IC50 [2]	IC50 [3]
Cc1ncc(Cc2cccc(CCO)c2)c(N)n1 [2-{3-[(4-Amino-2-Methylpyrimidin-5-Yl)methyl]phenyl}ethanol]	94 µM	197 µM	–
O=C(O)C(=O)CF [fluoropyruvate]	–	–	~27 µM
